Laboratory results published in patent US3969401A, “D-aminophenylacetic acid compounds and derivatives” (William H. Rorer, Inc., priority 1973, dated 1976).
Where a name gives a salt, the structure may show the parent alone.

Tests used:
carrageenan paw edema = experiment: Carrageenan Paw Edema (CPE); assay type: in vivo, male rats
Description: Of the substances used to induce local irritation, carrageenan was selected since most known nonsteroidal anti-inflammatory agents inhibit this inflammation.
Ten male rats per dose group (120-150 g.) were given one-half of the test material orally. Thirty minutes later, the remainder of the dose was given and 0.2 ml. of a 1% carrageenan solution was injected subdermally into the plantar surface of the hind paw. Each paw is marked as a consistent anatomical site, then immersed in a mercury bath to that point. The mercury bath is connected to a pressure transducer and the volume of displacement is read directly on a recorder. Three hours after drug administration, the hind paw volume is measured again. The increased volume is an index of edema. Treated groups are compared to a placebo-treated group to calculate the percent inhibition of edema.
(§1) The test results are given in the following Table wherein the following legends were employed: PQW phenylquinone writhing RSA Randall-Selitto Analgesia CPE Carrageenan Paw Edema UVS Ultra-Violet Erythema FPG Filter Paper Granuloma AP Anti-Pyresis P.T. Pain Threshold No. P/T Number Positive/Total % ↑ Percentage Increase % ↓ Percentage Inhibition

ultra-violet erythema = experiment: Ultra-violet Erythema in Guinea Pigs (UVE); assay type: in vivo, guinea pig
Description: Erythema associated with inflammation was used in the assay. Restricted areas of a guinea pig were exposed to a controlled ultra-violet light and after two hours the exposed areas were graded for the extent of erythema.
as §1

polyarthritis (adjuvant) = experiment: Polyarthritis in rats (adjuvant); assay type: in vivo
Description: Twelve rats per dose group were treated (b.i.d.) starting the day before injection of adjuvant. Paw volumes were measured for both hind paws on several days during and following drug treatment. Drug was given for a period of 15 days. The paw volume was compared to an untreated control group to determine volume increase. Drug action was calculated as the percent decrease in paw volume (inflammation) as compared to an adjuvant-treated control. Gross signs of inflammation were scored on a weekly basis and drug action calculated as a decrese in total score. Body weights were recorded at intervals.

gastrointestinal tract = experiment: Gastrointestinal tolerance; assay type: in vivo; conditions: compared with the free acids
[1] = tested on: yeast-inflamed hind paw (pain threshold); experiment: Randall-Selitto Analgesia Test (RSA); assay type: in vivo, rat
Description: In accordance with the Randall-Selitto test for measuring the pain threshold, the pressure needed on a metal plunger to give a "pain reponse" in a rat when the plunger is placed in the yeast-inflamed hind paw of a rat is measured. Following measurement of control pain threshold, yeast was injected into the paw and the test compound was given orally. The pain threshold was measured at hourly intervals and compared to a placebo-treated control group.
as §1

Brewer's yeast fever = experiment: Anti-Pyretic Assay (AP); assay type: in vivo, rats; conditions: positive = rectal temperature decreases by 1° C. or more
Description: Brewer's yeast was injected subcutaneously in rats and rectal temperatures were obtained at the end of five hours. Those rats (10 per group) having a significant fever were given test compounds and rectal temperatures were measured at hourly intervals for 2 to 3 hours. (A positive response occurs when rectal temperature decreases by 1° C. or more).
as §1

phenylquinone writhing = experiment: Phenylquinone analgesia (phenylquinone writhing, PQW); assay type: in vivo, mice
Description: Mice were pre-treated orally with test compound and then given 1.25 mg./kg. of phenylquinone i.p to produce a series of "writhes" (severe intestinal contractions). The number of writhes was recorded. The percent decrease was calculated from the incidence of writhes in a placebo-treated control group.
as §1

Acute Toxicity = conditions: mouse, in vivo; male mice, oral single dose, observed nine days
Description: Food and water were delivered ad lib. The drug to be tested was prepared as a water suspension using one drop of "Tween 80" per 10 ml. and administered orally as a single dose (10 ml./kg.). The control group received the vehicle only (10 ml./kg.). The lethal dose (LD50) which is the dose of drug required to kill 50 percent of the animals tested, was determined by the Litchfield and Wilcoxon method.

filter paper granuloma = experiment: Filter Paper Granuloma (FPG); assay type: in vivo, rat
Description: This assay was used to evaluate anti-inflammatory agents and to determine the lowest dose which produces significant inhibition of granuloma growth. This assay has the advantage of being semi-acute (4 to 7 days). The usual end point involves obtaining the wet weight as well as the dry weight of the granuloma.
Small discs of filter paper saturated with carrageenan were placed subcutaneously in each rat on the first day of the study. Test compound was administered orally on a b.i.d. basis on Day 1 to Day 4. On Day 5, a single dose was given in the morning and the animals were sacrificed in the afternoon. Both filter paper discs were removed and trimmed of extraneous tissue and then weighed. After drying in an oven over the weekend, the dry weight was obtained. Activity was determined by the difference in granuloma weight between a placebo-treated control group and the drug-treated groups.
as §1

SMILES: O=C(O)C(S)c1ccc(C2CCCCC2)c(Cl)c1 (stereo not drawn) [Compound 528A, Diethylammonium salt of m-chloro-p-cyclohexyl-α-mercaptophenylacetic acid]
- CPE % inhibition of edema (carrageenan paw edema; 100 mg/kg P.O): 52.0%
- UVE No. P/T (Number Positive/Total) (ultra-violet erythema; 5 mg/kg P.O): 5/8
- UVE No. P/T (Number Positive/Total) (ultra-violet erythema; 10 mg/kg P.O): 5/8
- UVE No. P/T (Number Positive/Total) (ultra-violet erythema; 25 mg/kg P.O): 7/8
- ED50 (ultra-violet erythema; Cavia porcellus, po, P.O): 10.5 mg/kg
- Polyarthritis % av. inhibition, injected hind-paw (polyarthritis (adjuvant); 100 mg./kg./day P.O): 52.8%
- Polyarthritis % av. inhibition, noninjected hind-paw (polyarthritis (adjuvant); 100 mg./kg./day P.O): 35.6%
- Polyarthritis % av. inhibition, secondary lesions (polyarthritis (adjuvant); 100 mg./kg./day P.O): 34.0%

SMILES: CCOC(=O)C(Cl)c1ccc(C2CCCCC2)c(Cl)c1 (stereo not drawn) [Compound 541, α,m-Dichloro-p-cyclohexylphenylacetic acid ethyl ester]
- gastrointestinal tolerability (gastrointestinal tract): better tolerated and not as irritating on the gastrointestinal tract as the free acids
- CPE % inhibition of edema (carrageenan paw edema; 6.25 mg/kg P.O): 51.3%
- CPE % inhibition of edema (carrageenan paw edema; 12.5 mg/kg P.O): 38.8%
- CPE % inhibition of edema (carrageenan paw edema; 25 mg/kg P.O): 49.8%
- CPE % inhibition of edema (carrageenan paw edema; 50 mg/kg P.O): 52.2%

SMILES: N=C1NC(=O)C(c2ccc(C3CCCCC3)c(Cl)c2)S1 (centres unmarked) [Compound 530, 5-(m-Chloro-p-cyclohexylphenyl)-2-imino-4-oxothiazolidine]
- RSA % increase of pain threshold (PT) ([1]; 100 mg/kg P.O): 51.4%
- Polyarthritis % av. inhibition, injected hind-paw (polyarthritis (adjuvant); 100 mg./kg./day P.O): 38.1%
- Polyarthritis % av. inhibition, noninjected hind-paw (polyarthritis (adjuvant); 100 mg./kg./day P.O): 44.7%
- Polyarthritis % av. inhibition, secondary lesions (polyarthritis (adjuvant); 100 mg./kg./day P.O): 17.3%

SMILES: O=C1NC(=O)C(c2ccc(C3CCCCC3)c(Cl)c2)S1 (centres unmarked) [Compound 529, 5-(m-Chloro-p-cyclohexylphenyl)-2,4-dioxothiazolidine]
- CPE % inhibition of edema (carrageenan paw edema; 50 mg/kg P.O): 17.4%
- CPE % inhibition of edema (carrageenan paw edema; 100 mg/kg P.O): 30%
- AP No. P/T (Number Positive/Total) (Brewer's yeast fever; 100 mg/kg P.O): 1/8
- Polyarthritis % av. inhibition, injected hind-paw (polyarthritis (adjuvant); 100 mg./kg./day P.O): 42.0%
- Polyarthritis % av. inhibition, noninjected hind-paw (polyarthritis (adjuvant); 100 mg./kg./day P.O): 17.3%
- Polyarthritis % av. inhibition, secondary lesions (polyarthritis (adjuvant); 100 mg./kg./day P.O): 21.0%

SMILES: O=C(O)C(Cl)c1ccc(C2CCCCC2)c(Cl)c1 (stereo not drawn) [Compound 539A, Sodium salt of α,m-dichloro-p-cyclohexylphenylacetic acid]
- CPE % inhibition of edema (carrageenan paw edema; 1 mg/kg P.O): 10%
- CPE % inhibition of edema (carrageenan paw edema; 2 mg/kg P.O): 30.3%
- CPE % inhibition of edema (carrageenan paw edema; 3.125 mg/kg P.O): 34.6%
- CPE % inhibition of edema (carrageenan paw edema; 5 mg/kg P.O): 29.5%
- CPE % inhibition of edema (carrageenan paw edema; 6.25 mg/kg P.O): 42.0%
- CPE % inhibition of edema (carrageenan paw edema; 12.5 mg/kg P.O): 47.2%
- CPE % inhibition of edema (carrageenan paw edema; 25 mg/kg P.O): 43.0%
- CPE % inhibition of edema (carrageenan paw edema; 50 mg/kg P.O): 52.0%
- CPE % inhibition of edema (carrageenan paw edema; 100 mg/kg P.O): 64.0%
- PQW % inhibition (decrease in writhes) (phenylquinone writhing; 2 mg/kg P.O): 13.1%
- PQW % inhibition (decrease in writhes) (phenylquinone writhing; 5 mg/kg P.O): 13.1%
- PQW % inhibition (decrease in writhes) (phenylquinone writhing; 10 mg/kg P.O): 54.6%
- PQW % inhibition (decrease in writhes) (phenylquinone writhing; 20 mg/kg P.O): 84.5%
- PQW % inhibition (decrease in writhes) (phenylquinone writhing; 30 mg/kg P.O): 96.6%
- ED50 (phenylquinone writhing; Mus musculus, po, P.O): 9.6 mg/kg
- LD50 at 216 h (Acute Toxicity): 430 mg/kg
- AP No. P/T (Number Positive/Total) (Brewer's yeast fever; 6.25 mg/kg P.O): 0/8
- AP No. P/T (Number Positive/Total) (Brewer's yeast fever; 12.5 mg/kg P.O): 3/8
- AP No. P/T (Number Positive/Total) (Brewer's yeast fever; 25 mg/kg P.O): 2/8
- AP No. P/T (Number Positive/Total) (Brewer's yeast fever; 50 mg/kg P.O): 6/8
- AP No. P/T (Number Positive/Total) (Brewer's yeast fever; 100 mg/kg P.O): 8/8
- RSA % increase of pain threshold (PT) ([1]; 25 mg/kg P.O): 41.8%
- RSA % increase of pain threshold (PT) ([1]; 50 mg/kg P.O): 49.3%
- RSA % increase of pain threshold (PT) ([1]; 100 mg/kg P.O): 77.6%
- EPG (Filter Paper Granuloma) % inhibition, dry weight (filter paper granuloma; 25 mg./kg./day P.O): 41.1%
- EPG (Filter Paper Granuloma) % inhibition, wet weight (filter paper granuloma; 25 mg./kg./day P.O): 31.7%
- EPG (Filter Paper Granuloma) % inhibition, dry weight (filter paper granuloma; 50 mg./kg./day P.O): 38.8%
- EPG (Filter Paper Granuloma) % inhibition, wet weight (filter paper granuloma; 50 mg./kg./day P.O): 43.9%
- Polyarthritis % av. inhibition, injected hind-paw (polyarthritis (adjuvant); 10 mg./kg./day P.O): 41.8%
- Polyarthritis % av. inhibition, noninjected hind-paw (polyarthritis (adjuvant); 10 mg./kg./day P.O): 14.1%
- Polyarthritis % av. inhibition, secondary lesions (polyarthritis (adjuvant); 10 mg./kg./day P.O): 28.2%
- Polyarthritis % av. inhibition, injected hind-paw (polyarthritis (adjuvant); 25 mg./kg./day P.O): 50.2%
- Polyarthritis % av. inhibition, noninjected hind-paw (polyarthritis (adjuvant); 25 mg./kg./day P.O): 12.1%
- Polyarthritis % av. inhibition, secondary lesions (polyarthritis (adjuvant); 25 mg./kg./day P.O): 44.0%
- Polyarthritis % av. inhibition, injected hind-paw (polyarthritis (adjuvant); 50 mg./kg./day P.O): 45%
- Polyarthritis % av. inhibition, noninjected hind-paw (polyarthritis (adjuvant); 50 mg./kg./day P.O): 59.6%
- Polyarthritis % av. inhibition, secondary lesions (polyarthritis (adjuvant); 50 mg./kg./day P.O): 39.3%
- Polyarthritis % av. inhibition, injected hind-paw (polyarthritis (adjuvant); 100 mg./kg./day P.O): 59.1%
- Polyarthritis % av. inhibition, noninjected hind-paw (polyarthritis (adjuvant); 100 mg./kg./day P.O): 51.2%
- Polyarthritis % av. inhibition, secondary lesions (polyarthritis (adjuvant); 100 mg./kg./day P.O): 30.1%

SMILES: O=C(O)C(SSC(C(=O)O)c1ccc(C2CCCCC2)c(Cl)c1)c1ccc(C2CCCCC2)c(Cl)c1 (stereo not drawn) [Compound 531A, Diethylammonium salt of α,α'-di-(m-chloro-p-cyclohexylphenyl)-α',α'-dithiodiacetic acid]
- CPE % inhibition of edema (carrageenan paw edema; 100 mg/kg P.O): 19.9%
- LD50 at 216 h (Acute Toxicity): > 2000 mg/kg
- AP No. P/T (Number Positive/Total) (Brewer's yeast fever; 50 mg/kg P.O): 1/8
- AP No. P/T (Number Positive/Total) (Brewer's yeast fever; 100 mg/kg P.O): 1/8
- AP No. P/T (Number Positive/Total) (Brewer's yeast fever; 200 mg/kg P.O): 6/8
- RSA % increase of pain threshold (PT) ([1]; 50 mg/kg P.O): 32%
- RSA % increase of pain threshold (PT) ([1]; 100 mg/kg P.O): 28%
- RSA % increase of pain threshold (PT) ([1]; 200 mg/kg P.O): 51%
- Polyarthritis % av. inhibition, injected hind-paw (polyarthritis (adjuvant); 100 mg./kg./day P.O): 34.0%
- Polyarthritis % av. inhibition, noninjected hind-paw (polyarthritis (adjuvant); 100 mg./kg./day P.O): 44.7%
- Polyarthritis % av. inhibition, secondary lesions (polyarthritis (adjuvant); 100 mg./kg./day P.O): 30.3%
- Polyarthritis % av. inhibition, injected hind-paw (polyarthritis (adjuvant); 200 mg./kg./day P.O): 35.6%
- Polyarthritis % av. inhibition, noninjected hind-paw (polyarthritis (adjuvant); 200 mg./kg./day P.O): 43.8%
- Polyarthritis % av. inhibition, secondary lesions (polyarthritis (adjuvant); 200 mg./kg./day P.O): 43.6%
